Reference: patent EP0380359A1, “Biocidal compositions and treatments” (Albright & Wilson Limited, priority 1989, dated 1990)

Tested on: infected cooling water
Assay: Biocide test: bacterial counts in dosed samples of infected cooling water after 17 hours
Assay type: cell-based
Conditions: for bacterial counts per ml.: Table 2 (Example 6), control 10⁷
Procedure: Ethyl tris (hydroxymethyl) phosphonium chloride (Ethyl THPC) prepared according to the method of example 4, THPS, and a tetrakis (1 - hydroxy ethyl) phosphonium chloride (comparative example) were each dosed at four different concentrations to separate samples of an infected cooling water.
Bacterial counts per ml. of solution were estimated after 17 hours. The results are set out in Table 1 Table 1
Methyl tris (hydroxy methyl) phosphonium chloride (methyl THPC), THPS, and two other comparative examples, cyclohexyl tris (hydroxy methyl) phosphonium chloride and octyl tris (hydroxy methyl) phosphonium sulphate were each added at concentrations of 50, 200 and 1,000 ppm to separate samples of an infected cooling water.
Allyl tris (hydroxymethyl) phosphonium bromide (allyl THPB) prepared as described in Ex3 was compared with 2, 6-dichlorobenzyl tris (hydroxymethyl) phosphonium bromide and THPS in a biocide test as described in example 5. […]

[1] = Table 3 (Example 7), 100 ppm, test as in example 5
[2] = Table 3 (Example 7), 150 ppm, test as in example 5
[3] = Table 3 (Example 7), 200 ppm, test as in example 5
[4] = Example 5, summary in words of Table 1
[5] = Table 1 (Example 5), 150 ppm, after 17 hours, control 10⁶
[6] = Table 1 (Example 5), 200 ppm, after 17 hours, control 10⁶

## C=CC[P+](CO)(CO)CO.[Br-] [ALLYL THPB, Allyl tris (hydroxymethyl) phosphonium bromide]
Example 7, summary in words of Table 3
  bactericidal activity: performs at least as well as THPS
[1]
  Bacterial counts per ml. of solution: 0 per ml
[2]
  Bacterial counts per ml. of solution: 0 per ml
[3]
  Bacterial counts per ml. of solution: 0 per ml

## CC[P+](CO)(CO)CO.[Cl-] [ETHYL THPC, Ethyl tris (hydroxymethyl) phosphonium chloride]
[4]
  bactericidal activity: more effective than THPS at lower concentrations
Table 1 (Example 5), 100 ppm, after 17 hours, control 10⁶
  Bacterial counts per ml. of solution: 0 per ml
[5]
  Bacterial counts per ml. of solution: 0 per ml
[6]
  Bacterial counts per ml. of solution: 0 per ml

## C[P+](CO)(CO)CO.[Cl-] [METHYL THPC, Methyl tris (hydroxy methyl) phosphonium chloride]
200 ppm, after 17 hours
  bacterial counts per ml.: 0 per ml
1000 ppm, after 17 hours
  bacterial counts per ml.: 0 per ml

## OC[P+](CO)(CO)CO [THPS, reference compound]
[4]
  bactericidal activity: effective
[5]
  Bacterial counts per ml. of solution: 0 per ml
[6]
  Bacterial counts per ml. of solution: 0 per ml
200 ppm, after 17 hours
  bacterial counts per ml.: 0 per ml
1000 ppm, after 17 hours
  bacterial counts per ml.: 0 per ml
[1]
  Bacterial counts per ml. of solution: 0 per ml
[2]
  Bacterial counts per ml. of solution: 0 per ml
[3]
  Bacterial counts per ml. of solution: 0 per ml
